Test results as given in US20260115250A1, “METHODS OF TREATING AGE-RELATED MACULAR DEGENERATION” (Character Biosciences, Inc., priority 2022, published 2026).
Peptide text beside a SMILES is read from it.

Assays:
LDLR [1] = biological target: T1, LDLR (Homo sapiens, UniProt P01130); test: lipid-dependent LDLR binding (SPR), single concentration; conditions: 1 μM peptide with or without 25 μM DMPC
Experimental: Peptides were diluted in 1×HBS-N buffer with 1 mM CaCl2 to a final concentration of 1 μM and incubated with or without 25 μM DMPC for 1 hour at RT to form lipid complexes. Each peptide was tested in duplicate. LDLR was diluted to 10 μg/mL in 10 mM acetate buffer pH 4.5 and was immobilized (˜400RU) on a CM5 chip via amine coupling utilizing 1×HBS-P+ buffer with 1 mM CaCl2. Test peptides (with or without DMPC) were exposed to immobilized LDLR at a flow rate of […] for 120 seconds in HBS-N with 1 mM CaCl2. Between cycles the surface was regenerated with 3, 30 second injections of 10 mM NaOH and 100 mM EDTA. Data are plotted as max RU values, averaged from three separate runs.
Target sequence in this assay (P01130 22-860): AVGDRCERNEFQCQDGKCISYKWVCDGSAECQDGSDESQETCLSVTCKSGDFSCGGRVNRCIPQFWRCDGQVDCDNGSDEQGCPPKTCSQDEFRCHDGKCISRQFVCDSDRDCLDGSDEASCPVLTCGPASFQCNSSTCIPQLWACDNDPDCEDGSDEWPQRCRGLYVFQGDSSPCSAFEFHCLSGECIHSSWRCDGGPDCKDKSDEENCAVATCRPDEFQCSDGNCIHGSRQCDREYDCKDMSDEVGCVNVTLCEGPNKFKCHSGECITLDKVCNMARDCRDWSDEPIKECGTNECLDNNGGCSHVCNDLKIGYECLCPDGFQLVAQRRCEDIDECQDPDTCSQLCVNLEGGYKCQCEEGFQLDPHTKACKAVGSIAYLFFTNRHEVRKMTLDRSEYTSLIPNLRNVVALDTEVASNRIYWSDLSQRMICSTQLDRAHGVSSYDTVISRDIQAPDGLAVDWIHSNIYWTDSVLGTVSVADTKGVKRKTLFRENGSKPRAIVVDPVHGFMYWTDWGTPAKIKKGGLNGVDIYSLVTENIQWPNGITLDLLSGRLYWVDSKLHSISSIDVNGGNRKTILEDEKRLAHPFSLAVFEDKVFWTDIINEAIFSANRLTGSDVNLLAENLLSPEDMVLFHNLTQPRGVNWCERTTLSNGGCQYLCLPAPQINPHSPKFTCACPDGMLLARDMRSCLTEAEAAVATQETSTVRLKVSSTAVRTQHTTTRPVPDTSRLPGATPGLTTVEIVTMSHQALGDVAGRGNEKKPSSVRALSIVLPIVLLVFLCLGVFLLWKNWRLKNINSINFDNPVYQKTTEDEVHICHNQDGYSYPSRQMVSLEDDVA

[2] = DMPC solubility assay, 0.5 mM DMPC (turbidity reduction); assay type: biochemical; conditions: FIGS. 2A-2D and 3A-3C
Experimental: In this example, peptide stocks were diluted to 200 μM in H2O (a 2× solution) and 50 μL of peptide solution was transferred in triplicate into 96-well plates. A one mM solution of 1,2-dimyristoyl-sn-glycero-3-phosphocholine (DMPC) in H2O was prepared, and using a multichannel pipet, 50 μL DMPC solution was rapidly added to the plate. Peptide and lipid solutions were incubated at room temperature for 15 minutes with a final concentration of 100 μM peptides and 0.5 mM DMPC. After 15 minutes, absorbance was read on a plate reader at 405 nm. […] Data are presented as mean+SD over two runs.
In these experiments, DMPC solubility titration curves were generated. Peptide stocks were diluted to 200 μM in H2O (a 2× solution) and serially diluted in H2O over 4 concentrations, then 50 μL of peptide solutions were distributed in triplicate into 96-well plates. A 1 mM solution of 1,2-dimyristoyl-sn-glycero-3-phosphocholine (DMPC) in H2O was prepared, and using a multichannel pipet, 50 μL DMPC solution was rapidly added to the plate. Peptide and lipid solutions were incubated at room temperature for 15 minutes with final concentrations of 3.16-100 μM peptides and 0.5 mM DMPC. After 15 minutes, absorbance was read on a plate reader at 405 nm. […] Data are presented as mean+SD over two runs. Non-linear regression was used to calculate EC50 values.

C57BL/6J mice = test: tolerability testing in mice after intravitreal injection (H&E histopathology); assay type: in vivo, mouse; conditions: IVT, 520 μM, seven days
From the text: Seven days following IVT injection, eyes were harvested and prepared for hematoxylin and eosin staining. A blinded veterinarian performed histopathological analysis of tissue slices to determine whether the peptides induced inflammation or retinal disruption.

ARPE-19 cells = test: ARPE-19 cell lysis (Sytox Green); assay type: cell-based, human; conditions: 10 μM peptide, 2 h
Experimental: These figures illustrate ARPE-19 cell lysis. ARPE-19 cells were grown in 96-well plates to 75-85% confluence. Peptides at 10 mM were diluted in serum-free DMEM:F12 media into a 20 μM working solution (a 2× solution). Sytox Green was prepared in serum-free DMEM:F12 at a 1 μM working solution (a 2× solution). Equivalent volumes of the peptide and Sytox Green solutions were added to empty 96-well plates and mixed gently. Final peptide concentration was 10 μM. ARPE-19 cells (˜80% confluent in 96-well plates) were washed with DPBS and then incubated in 100 μL of peptide/Sytox Green mixture for 2 h at 37° C. Cells were fixed in 4% paraformaldehyde solution in DPBS and then incubated in 10 μM Hoechst solution for 10 min, washed, and imaged on a Yokogawa CQ1 high-content imager. CellPathfinder software was used to count live/dead cells in 4 fields of view at 20× magnification. Percent (%) lysis was calculated by dividing the number of Sytox Green+ nuclei by the total number of Hoechst+ nuclei.
ARPE-19 cells were grown in 96-well plates to 75-85% confluence. Peptides at 10 mM were diluted in serum-free DMEM: F12 media to solutions between […]. Sytox Green was prepared in serum-free DMEM: F12 media at a 1 μM working solution. Equivalent volumes of the peptide and Sytox Green solutions were added to empty 96-well plates and mixed gently. Final peptide concentration was 3.16-100 μM. ARPE-19 cells (˜80% confluent in 96-well plates) were washed with DPBS and then incubated in 100 μL of peptide/Sytox Green mixture for 2 h at 37° C. Cells were fixed in 4% paraformaldehyde solution in DPBS and then incubated in 10 μM Hoechst solution for 10 min, washed, and imaged on a Yokogawa CQ1 high-content imager. CellPathfinder software was used to count live/dead cells in 4 fields of view at 20× magnification. Percent (%) lysis was calculated by dividing the number of Sytox Green+ nuclei by the total number of Hoechst+ nuclei. Non-linear regression was used to calculate EC50 values.

[3] = peptide binding to non-oxidized and oxidized lipids (SPR); conditions: immobilized peptide; RU normalized to DMPC
Experimental: FIGS. 25A-25O show peptide binding activity to non-oxidized and oxidized lipids via SPR for indicated peptides. Peptides were reconstituted to 50 μg/mL in 10 mM acetate buffer, pH 4.5 and immobilized to ˜200 RU on a CM5 chip via amine coupling. Non-oxidized lipids (DMPC & POPC) and oxidized lipids (POVPC & KOdiA-PC) were diluted to 100 µM in HBS-EP running buffer and exposed to the chip for binding (n=3) at a flow rate of […] for 120 seconds. The surface was regenerated with 20% EtOH. T-001 served as a positive control and T-031 served as a negative control on each chip. For each peptide, the RU response for all lipids was normalized to the DMPC RU values.

LDLR [4] = biological target: T1, LDLR; test: KD (µM)
From the text: First copying reader's note: Left of three side-by-side panels of FIG. 23; the KD cells hold value ± error together. Where the first naming reader finds the target: description_of_the_figure: FIG. 23 is a table showing the binding kinetics results of LDLR binding assays (SPR)
Target sequence in this assay (P01130 22-860 limits assumed): as the sequence (P01130 22-860) above

LDLR [5] = biological target: T1, LDLR; test: KD, Peptide (μM)
Target sequence in this assay (P01130 22-860 limits assumed): as the sequence (P01130 22-860) above
From the text: Title: Buffer: HBS + 0.005% P20
Head of the field: KD, Peptide (μM)
First copying reader's note: KD values are for binding to LDLR by SPR, peptide alone versus peptide:DMPC lipid complex; the table continues on FIG. 24B.

Row | lipid-dependent LDLR binding (RU with lipid vs peptide alone) (LDLR [1]) | Compound | DMPC solubilizing activity [2] | ARPE-19 cell lysis (ARPE-19 cells) | further results
1 | lipid-dependent LDLR binding activity | T-018: therapeutic peptide (HLRKLRKRLLRPPEQAQQIRLQAEAFQARLKSWFE) | significant activity | – | –
2 | – | CC(C)C[C@H](NC(=O)[C@H](C)NC(=O)[C@H](CCCNC(=N)N)NC(=O)[C@H](Cc1ccccc1)NC(=O)[C@H](CCCNC(=N)N)NC(=O)[C@H](CCC(=O)O)NC(=O)[C@H](Cc1c[nH]c2ccccc12)NC(=O)[C@H](C)NC(=O)[C@@H](N)CC(=O)O)C(=O)N[C@@H](Cc1ccccc1)C(=O)N[C@@H](CCCCN)C(=O)N[C@@H](CCC(=O)O)C(=O)N[C@@H](CC(C)C)C(=O)N[C@@H](C)C(=O)N[C@@H](CC(=O)O)C(=O)N[C@@H](Cc1ccc(O)cc1)C(=O)N[C@@H](Cc1ccccc1)C(=O)N[C@@H](CCCNC(=N)N)C(=O)O [T-087] (H-DAWERFRALFKELADYFR-OH; N-terminus and C-terminus assumed) | – | – | in vivo tolerability (inflammation or retinal disruption) (C57BL/6J mice): well tolerated
3 | – | CC(C)C[C@H](NC(=O)[C@H](Cc1ccccc1)NC(=O)[C@H](CCC(=O)O)NC(=O)[C@H](CCC(=O)O)NC(=O)[C@H](CC(C)C)NC(=O)[C@H](CCC(N)=O)NC(=O)[C@H](CCCNC(=N)N)NC(=O)CNC(=O)[C@@H](NC(=O)[C@H](CC(C)C)NC(=O)[C@H](CCCNC(=N)N)NC(=O)[C@H](CC(C)C)NC(=O)[C@H](CC(C)C)NC(=O)[C@H](CCCNC(=N)N)NC(=O)[C@H](CCCCN)NC(=O)[C@H](CCCNC(=N)N)NC(=O)[C@H](CC(C)C)NC(=O)[C@H](CCCCN)NC(=O)[C@H](CCCNC(=N)N)NC(=O)[C@H](CC(C)C)NC(=O)[C@@H](N)Cc1c[nH]cn1)C(C)C)C(=O)O [T-028] (H-HLRKLRKRLLRLVGRQLEEFL-OH) | – | induce cell lysis | –
4 | – | T-030: therapeutic peptide (EHLCELIERACRKLVELQEKLSKWLIAELGEGWRQWLHSLKEFLS) | significant activity | – | binding to oxidized lipids relative to DMPC [3]: binding to at least one oxidized lipid that was equivalent or improved to binding against DMPC
5 | – | CC(C)C[C@H](NC(=O)[C@H](CC(C)C)NC(=O)[C@H](CCCNC(=N)N)NC(=O)[C@H](CCCCN)NC(=O)[C@H](CCCNC(=N)N)NC(=O)[C@H](CC(C)C)NC(=O)[C@H](CCCCN)NC(=O)[C@H](CCCNC(=N)N)NC(=O)[C@H](CC(C)C)NC(=O)[C@@H](N)Cc1c[nH]cn1)C(=O)N[C@@H](CCCNC(=N)N)C(=O)N[C@@H](CC(=O)O)C(=O)N[C@@H](Cc1c[nH]c2ccccc12)C(=O)N[C@@H](Cc1ccccc1)C(=O)N[C@@H](CCCCN)C(=O)N[C@@H](C)C(=O)N[C@@H](Cc1ccccc1)C(=O)N[C@@H](Cc1ccc(O)cc1)C(=O)N[C@@H](CC(=O)O)C(=O)N[C@@H](CCCCN)C(=O)N[C@H](C(=O)N[C@@H](C)C(=O)N[C@@H](CCC(=O)O)C(=O)N[C@@H](CCCCN)C(=O)N[C@@H](Cc1ccccc1)C(=O)N[C@@H](CCCCN)C(=O)N[C@@H](CCC(=O)O)C(=O)N[C@@H](C)C(=O)N[C@@H](Cc1ccccc1)C(=O)O)C(C)C [T-021] (H-HLRKLRKRLLRDWFKAFYDKVAEKFKEAF-OH) | – | induce cell lysis | –
6 | lipid-dependent LDLR binding activity | T-007: therapeutic peptide (EELRVRLASHLRKLRKRLLRDADDLQKRLAVYQA) | significant activity | – | –
7 | – | CC(C)C[C@H](NC(=O)[C@H](CCCNC(=N)N)NC(=O)[C@H](CC(=O)O)NC(=O)[C@H](CCC(N)=O)NC(=O)[C@H](CC(C)C)NC(=O)[C@H](CCCCN)NC(=O)[C@H](CC(=O)O)NC(=O)CNC(=O)[C@H](CC(=O)O)NC(=O)[C@H](CCCNC(=N)N)NC(=O)[C@H](CC(C)C)NC(=O)[C@H](CC(C)C)NC(=O)[C@H](CCCNC(=N)N)NC(=O)[C@H](CCCCN)NC(=O)[C@H](CCCNC(=N)N)NC(=O)[C@H](CC(C)C)NC(=O)[C@H](CCCCN)NC(=O)[C@H](CCCNC(=N)N)NC(=O)[C@H](CC(C)C)NC(=O)[C@@H](N)Cc1c[nH]cn1)C(=O)N[C@@H](C)C(=O)N[C@H](C(=O)N[C@@H](Cc1ccc(O)cc1)C(=O)N[C@@H](CCC(N)=O)C(=O)N[C@@H](C)C(=O)N[C@@H](CCCNC(=N)N)C(=O)N[C@@H](C)C(=O)N[C@@H](CCCCN)C(=O)N[C@@H](CCC(=O)O)C(=O)N[C@@H](C)C(=O)N[C@@H](Cc1ccccc1)C(=O)N[C@@H](CC(=O)O)C(=O)N[C@@H](CCCNC(=N)N)C(=O)O)C(C)C [T-053] (H-HLRKLRKRLLRDGDKLQDRLAVYQARAKEAFDR-OH; N-terminus and C-terminus assumed) | – | – | Kd (LDLR [4]): 0.121 ± 0.0149 mM; Kd (LDLR [5]): 43 ± 34 mM
8 | lipid-dependent LDLR binding activity | T-009: therapeutic peptide (EELRVRLASHLRKLRKRLLRDADDLQKRLAVYQAGAREGAERGLSAIRER) | significant activity | – | binding to oxidized lipids relative to DMPC [3]: binding to at least one oxidized lipid that was equivalent or improved to binding against DMPC
9 | – | CC[C@H](C)[C@H](NC(=O)CN)C(=O)N[C@@H](CCCCN)C(=O)N[C@@H](CCCCN)C(=O)N[C@@H](Cc1ccccc1)C(=O)N[C@@H](CC(C)C)C(=O)NCC(=O)N[C@@H](CO)C(=O)N[C@H](C(=O)N[C@@H](Cc1c[nH]c2ccccc12)C(=O)N[C@@H](CCCCN)C(=O)N[C@@H](Cc1ccccc1)C(=O)N[C@H](C(=O)N[C@@H](CCCCN)C(=O)N[C@@H](C)C(=O)N[C@@H](Cc1ccccc1)C(=O)N[C@H](C(=O)NCC(=O)O)C(C)C)[C@@H](C)CC)[C@@H](C)CC [T-034, reference compound] (H-GIKKFLGSIWKFIKAFVG-OH) | – | induce cell lysis | –
